According to patent US20250230193A1, “CYCLIC COMPOUND HAVING SELECTIVE KRAS INHIBITORY EFFECT ON HRAS AND NRAS” (CHUGAI SEIYAKU KABUSHIKI KAISHA, priority 2022, published 2025):

Legend:
[1] = molecular target: GDP-bound NRAS wild-type protein (Homo sapiens, UniProt P01111); assay: Binding to NRAS by surface plasmon resonance (SPR), Single Cycle Kinetics; settings: KD ratio, GDP-bound NRAS wild-type vs GDP-bound KRAS wild-type, SPR
[2] = molecular target: GDP-bound HRAS wild-type protein (Homo sapiens, UniProt P01112); assay: Binding to HRAS by surface plasmon resonance (SPR), Single Cycle Kinetics; settings: KD ratio, GDP-bound HRAS wild-type vs GDP-bound KRAS wild-type, SPR
Chain of GDP-bound HRAS wild-type protein (P01112 whole entry): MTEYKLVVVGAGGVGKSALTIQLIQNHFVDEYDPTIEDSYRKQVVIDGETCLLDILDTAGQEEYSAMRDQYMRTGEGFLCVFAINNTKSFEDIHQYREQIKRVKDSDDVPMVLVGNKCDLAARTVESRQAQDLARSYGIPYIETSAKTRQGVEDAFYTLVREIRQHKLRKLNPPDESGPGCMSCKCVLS

Chain of GDP-bound NRAS wild-type protein (P01111 whole entry): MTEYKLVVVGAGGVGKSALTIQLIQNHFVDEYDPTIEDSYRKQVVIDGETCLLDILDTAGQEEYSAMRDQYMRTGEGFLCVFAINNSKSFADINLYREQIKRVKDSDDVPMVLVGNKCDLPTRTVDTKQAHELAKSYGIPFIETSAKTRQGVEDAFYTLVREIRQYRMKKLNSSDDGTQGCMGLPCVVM

Structure (SMILES)	NRAS/KRAS (ratio of KD value for NRAS to KD value for KRAS) [1]	HRAS/KRAS (ratio of KD value for HRAS to KD value for KRAS) [2]
CCCOC[C@H]1C(=O)N[C@@H]([C@@H](C)CC)C(=O)N(C)CC(=O)N(C)[C@H]2C/C=C\CCN(C2=O)[C@@H](Cc2ccc(C(F)(F)F)cc2)C(=O)N(C)CC(=O)N[C@@H](CCc2cc(F)c(C(F)(F)F)c(F)c2)C(=O)N2C[C@H](F)C[C@H]2C(=O)NC2(CC(C)(C)C2)C(=O)N(C)[C@@H](C2CCCC2)C(=O)N(C)[C@H](C(=O)N(C)CCC)CC(=O)N1C [PP1698]	A (a compound having 10 or more and less than 20 is denoted as A)	A (a compound having 10 or more and less than 20 is denoted as A)
CCCN(C)C(=O)[C@@H]1CC(=O)N(C)[C@@H](CC)C(=O)N[C@@H]([C@@H](C)CC)C(=O)N(C)CC(=O)N(C)[C@H]2C/C=C\CCN(C2=O)[C@@H](Cc2ccc(C(F)(F)F)cc2)C(=O)N(C)CC(=O)N[C@@H](CCc2cc(F)c(C(F)(F)F)c(F)c2)C(=O)N2C[C@H](OCC)C[C@H]2C(=O)NC2(CCC2)C(=O)N(C)[C@@H](C2CCCC2)C(=O)N1C [PP1699]	A (a compound having 10 or more and less than 20 is denoted as A)	A (a compound having 10 or more and less than 20 is denoted as A)
CCCN(C)C(=O)[C@@H]1CC(=O)N(C)[C@@H](CC(F)F)C(=O)N[C@@H]([C@@H](C)CC)C(=O)N(C)CC(=O)N(C)[C@H]2C/C=C\CCN(C2=O)[C@@H](Cc2ccc(C(F)(F)F)cc2)C(=O)N(C)CC(=O)N[C@@H](CCc2cc(F)c(C(F)(F)F)c(F)c2)C(=O)N2C[C@H](OCC)C[C@H]2C(=O)NC2(CCC2)C(=O)N(C)[C@@H](C2CCCC2)C(=O)N1C [PP1700]	A (a compound having 10 or more and less than 20 is denoted as A)	A (a compound having 10 or more and less than 20 is denoted as A)
CCO[C@@H]1C[C@H]2C(=O)NC3(CCC3)C(=O)N(C)[C@@H](C3CCCC3)C(=O)N(C)[C@H](C(=O)N(C)CC)CC(=O)N(C)[C@@H](CC(F)(F)F)C(=O)N[C@@H]([C@@H](C)CC)C(=O)N(C)CC(=O)N(C)[C@H]3C/C=C\CCN(C3=O)[C@@H](Cc3ccc(C(F)(F)F)cc3)C(=O)N(C)CC(=O)N[C@@H](CCc3cc(F)c(C(F)(F)F)c(F)c3)C(=O)N2C1 [PP1701]	A (a compound having 10 or more and less than 20 is denoted as A)	A (a compound having 10 or more and less than 20 is denoted as A)
CCCN(C)C(=O)[C@@H]1CC(=O)N(C)[C@@H](CC(F)(F)F)C(=O)N[C@@H]([C@@H](C)CC)C(=O)N(C)CC(=O)N(C)[C@H]2C/C=C\CCN(C2=O)[C@@H](Cc2ccc(C(F)(F)F)cc2)C(=O)N(C)CC(=O)N[C@@H](CCc2cc(F)c(C(F)(F)F)c(F)c2)C(=O)N2C[C@H](OCC)C[C@H]2C(=O)NC2(CCC2)C(=O)N(C)[C@@H](C2CCCC2)C(=O)N1C [PP1702]	A (a compound having 10 or more and less than 20 is denoted as A)	A (a compound having 10 or more and less than 20 is denoted as A)
C#CC[C@H]1C(=O)N[C@@H]([C@@H](C)CC)C(=O)N(C)CC(=O)N(C)[C@H]2C/C=C\CCN(C2=O)[C@@H](Cc2ccc(C(F)(F)F)cc2)C(=O)N(C)CC(=O)N[C@@H](CCc2cc(F)c(C(F)(F)F)c(F)c2)C(=O)N2C[C@H](OCC)C[C@H]2C(=O)NC2(CCC2)C(=O)N(C)[C@@H](C2CCCC2)C(=O)N(C)[C@H](C(=O)N(C)CCC)CC(=O)N1C [PP1703]	A (a compound having 10 or more and less than 20 is denoted as A)	A (a compound having 10 or more and less than 20 is denoted as A)
CCCC[C@H]1C(=O)N[C@@H]([C@@H](C)CC)C(=O)N(C)CC(=O)N(C)[C@H]2C/C=C\CCN(C2=O)[C@@H](Cc2ccc(C(F)(F)F)cc2)C(=O)N(C)CC(=O)N[C@@H](CCc2cc(F)c(C(F)(F)F)c(F)c2)C(=O)N2C[C@H](OCC)C[C@H]2C(=O)NC2(CCC2)C(=O)N(C)[C@@H](C2CCCC2)C(=O)N(C)[C@H](C(=O)N(C)CCC)CC(=O)N1C [PP1704]	A (a compound having 10 or more and less than 20 is denoted as A)	A (a compound having 10 or more and less than 20 is denoted as A)
CCCN(C)C(=O)[C@@H]1CC(=O)N(C)[C@@H](CC2CCC2)C(=O)N[C@@H]([C@@H](C)CC)C(=O)N(C)CC(=O)N(C)[C@H]2C/C=C\CCN(C2=O)[C@@H](Cc2ccc(C(F)(F)F)cc2)C(=O)N(C)CC(=O)N[C@@H](CCc2cc(F)c(C(F)(F)F)c(F)c2)C(=O)N2C[C@H](OCC)C[C@H]2C(=O)NC2(CCC2)C(=O)N(C)[C@@H](C2CCCC2)C(=O)N1C [PP1705]	AA (a compound having 20 or more is denoted as AA)	A (a compound having 10 or more and less than 20 is denoted as A)
CC[C@H](C)[C@@H]1NC(=O)[C@H](C)N(C)C(=O)C[C@@H](C(=O)N(C)C)N(C)C(=O)[C@H](C2CCCC2)N(C)C(=O)C2(CC(C)(C)C2)NC(=O)[C@@H]2CC(F)(F)CN2C(=O)[C@H](CCc2cc(F)c(C(F)(F)F)c(F)c2)NC(=O)CN(C)C(=O)[C@H](Cc2ccc(C(F)(F)F)cc2)N2CC/C=C\C[C@@H](C2=O)N(C)C(=O)CN(C)C1=O [PP1707]	AA (a compound having 20 or more is denoted as AA)	A (a compound having 10 or more and less than 20 is denoted as A)
CC[C@H](C)[C@@H]1NC(=O)[C@H](CC(F)F)N(C)C(=O)C[C@@H](C(=O)N(C)C)N(C)C(=O)[C@H](C2CCCC2)N(C)C(=O)C2(CC(C)(C)C2)NC(=O)[C@@H]2CC(F)(F)CN2C(=O)[C@H](CCc2cc(F)c(C(F)(F)F)c(F)c2)NC(=O)CN(C)C(=O)[C@H](Cc2ccc(C(F)(F)F)cc2)N2CC/C=C\C[C@@H](C2=O)N(C)C(=O)CN(C)C1=O [PP1709]	A (a compound having 10 or more and less than 20 is denoted as A)	A (a compound having 10 or more and less than 20 is denoted as A)
CC[C@H](C)[C@@H]1NC(=O)[C@H](CC(F)(F)F)N(C)C(=O)C[C@@H](C(=O)N(C)C)N(C)C(=O)[C@H](C2CCCC2)N(C)C(=O)C2(CC(C)(C)C2)NC(=O)[C@@H]2CC(F)(F)CN2C(=O)[C@H](CCc2cc(F)c(C(F)(F)F)c(F)c2)NC(=O)CN(C)C(=O)[C@H](Cc2ccc(C(F)(F)F)cc2)N2CC/C=C\C[C@@H](C2=O)N(C)C(=O)CN(C)C1=O [PP1710]	A (a compound having 10 or more and less than 20 is denoted as A)	B (a compound having 3 or more and less than 10 is denoted as B)
CCC[C@H]1C(=O)N[C@@H]([C@@H](C)CC)C(=O)N(C)CC(=O)N(C)[C@H]2C/C=C\CCN(C2=O)[C@@H](Cc2ccc(C(F)(F)F)cc2)C(=O)N(C)CC(=O)N[C@@H](CCc2cc(F)c(C(F)(F)F)c(F)c2)C(=O)N2CC(F)(F)C[C@H]2C(=O)NC2(CC(C)(C)C2)C(=O)N(C)[C@@H](C2CCCC2)C(=O)N(C)[C@H](C(=O)N(C)C)CC(=O)N1C [PP1711]	A (a compound having 10 or more and less than 20 is denoted as A)	B (a compound having 3 or more and less than 10 is denoted as B)
CC[C@H](C)[C@@H]1NC(=O)[C@H](CC2CC2)N(C)C(=O)C[C@@H](C(=O)N(C)C)N(C)C(=O)[C@H](C2CCCC2)N(C)C(=O)C2(CC(C)(C)C2)NC(=O)[C@@H]2CC(F)(F)CN2C(=O)[C@H](CCc2cc(F)c(C(F)(F)F)c(F)c2)NC(=O)CN(C)C(=O)[C@H](Cc2ccc(C(F)(F)F)cc2)N2CC/C=C\C[C@@H](C2=O)N(C)C(=O)CN(C)C1=O [PP1713]	A (a compound having 10 or more and less than 20 is denoted as A)	A (a compound having 10 or more and less than 20 is denoted as A)
CCCC[C@H]1C(=O)N[C@@H]([C@@H](C)CC)C(=O)N(C)CC(=O)N(C)[C@H]2C/C=C\CCN(C2=O)[C@@H](Cc2ccc(C(F)(F)F)cc2)C(=O)N(C)CC(=O)N[C@@H](CCc2cc(F)c(C(F)(F)F)c(F)c2)C(=O)N2CC(F)(F)C[C@H]2C(=O)NC2(CC(C)(C)C2)C(=O)N(C)[C@@H](C2CCCC2)C(=O)N(C)[C@H](C(=O)N(C)C)CC(=O)N1C [PP1714]	A (a compound having 10 or more and less than 20 is denoted as A)	A (a compound having 10 or more and less than 20 is denoted as A)
CC[C@H](C)[C@@H]1NC(=O)[C@H](CC(C)C)N(C)C(=O)C[C@@H](C(=O)N(C)C)N(C)C(=O)[C@H](C2CCCC2)N(C)C(=O)C2(CC(C)(C)C2)NC(=O)[C@@H]2CC(F)(F)CN2C(=O)[C@H](CCc2cc(F)c(C(F)(F)F)c(F)c2)NC(=O)CN(C)C(=O)[C@H](Cc2ccc(C(F)(F)F)cc2)N2CC/C=C\C[C@@H](C2=O)N(C)C(=O)CN(C)C1=O [PP1715]	AA (a compound having 20 or more is denoted as AA)	A (a compound having 10 or more and less than 20 is denoted as A)
CC[C@H](C)[C@@H]1NC(=O)[C@H](CC2CCC2)N(C)C(=O)C[C@@H](C(=O)N(C)C)N(C)C(=O)[C@H](C2CCCC2)N(C)C(=O)C2(CC(C)(C)C2)NC(=O)[C@@H]2CC(F)(F)CN2C(=O)[C@H](CCc2cc(F)c(C(F)(F)F)c(F)c2)NC(=O)CN(C)C(=O)[C@H](Cc2ccc(C(F)(F)F)cc2)N2CC/C=C\C[C@@H](C2=O)N(C)C(=O)CN(C)C1=O [PP1716]	AA (a compound having 20 or more is denoted as AA)	A (a compound having 10 or more and less than 20 is denoted as A)
